# Reference: US6552007B2, “Use of somatostatin analogs for the delivery of anti-tumor drugs to tumor cells” (priority 2000, dated 2003)
# Read-outs that look alike come from different tables or passages of the source. Where a SMILES comes first, the peptide text is derived from it. Bridges are numbered along the chain shown (N, C = ends). [ ]: non-standard residue; d: D form.
# Legend:
# [1] = test system: CHO cells; settings: 30 min, 4° C.; for binding (fluorescence labeling) to CHO cells: 100 μg in 1 ml buffer; for binding to CHO cells at higher concentration of labeled octreotide: higher concentration (500 μg/ml)
# Protocol: FIG. 2 depicts fluorescence micrographs of MCF-7 and CHO cells after incubation with fluorescin-octreotide at 4° C. for 30 min. […] Cell morphology was shown at A, C, E, and G. Bar=20 μm;
# The MCF-7 cells and CHO cells are inclubated with 100 μg of fluorescein labeled octerotide in 1 ml of a buffer for 30 minutes at 4 ° C., after which the cells are washed with PBS, fixed with 4% paraformaldehye and subject to fluorescence microscopy.
# [2] = test system: MCF-7 cells; assay: Fluorescence microscopy binding of fluorescein-labeled octreotide to MCF-7 cells; settings: 30 min, 4° C.; for binding (fluorescence labeling) to MCF-7 cells: 100 μg in 1 ml buffer
# Protocol: Panels B, D, F and H which correspond to panels A, C, E and G, respectively, show the fluorescence labeled octreotide binding to the MCF-7 cells and the CHO. The MCF-7 cells and CHO cells are inclubated with 100 μg of fluorescein labeled octerotide in 1 ml of a buffer for 30 minutes at 4 ° C., after which the cells are washed with PBS, fixed with 4% paraformaldehye and subject to fluorescence microscopy.
# [3] = test system: MCF-7 cells; assay: Internalization of labeled octreotide by MCF-7 cells (somatostatin receptor-mediated endocytosis); format: cell-based; settings: one hour incubation, 100 μg/ml, 37° C.
# [4] = target: human somatostatin receptors subtype 2 (Homo sapiens, UniProt P30874); settings: cited from earlier work
# human somatostatin receptors subtype 2, sequence (P30874 whole entry): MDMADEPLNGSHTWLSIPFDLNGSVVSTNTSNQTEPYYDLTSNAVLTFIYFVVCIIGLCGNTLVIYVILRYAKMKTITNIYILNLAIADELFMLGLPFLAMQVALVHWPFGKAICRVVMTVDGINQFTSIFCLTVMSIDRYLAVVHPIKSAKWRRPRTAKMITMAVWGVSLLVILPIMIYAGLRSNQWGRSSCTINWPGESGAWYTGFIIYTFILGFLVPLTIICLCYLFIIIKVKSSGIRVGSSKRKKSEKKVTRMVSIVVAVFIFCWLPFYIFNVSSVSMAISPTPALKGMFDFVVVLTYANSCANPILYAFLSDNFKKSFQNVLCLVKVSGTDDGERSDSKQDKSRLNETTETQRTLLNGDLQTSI
# [5] = target: human somatostatin receptors subtype 4 (Homo sapiens, UniProt P31391); settings: cited from earlier work
# human somatostatin receptors subtype 4, sequence (P31391 whole entry): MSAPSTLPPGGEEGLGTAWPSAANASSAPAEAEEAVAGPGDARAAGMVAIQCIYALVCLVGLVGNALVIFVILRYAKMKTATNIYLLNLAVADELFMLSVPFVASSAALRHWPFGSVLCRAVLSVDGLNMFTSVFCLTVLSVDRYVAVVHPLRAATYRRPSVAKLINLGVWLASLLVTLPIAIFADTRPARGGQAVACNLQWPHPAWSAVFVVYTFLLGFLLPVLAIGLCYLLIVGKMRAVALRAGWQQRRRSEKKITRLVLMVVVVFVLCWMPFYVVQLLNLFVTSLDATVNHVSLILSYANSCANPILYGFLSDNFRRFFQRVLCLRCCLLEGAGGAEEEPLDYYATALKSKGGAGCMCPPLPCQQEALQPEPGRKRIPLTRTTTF
# [6] = test system: MCF-7 cells; assay: Cell death of MCF-7 cells after 1 day treatment; format: cell-based; settings: 10^−5 M
# [7] = test system: CHO cells; assay: Cell death of CHO cells after 1 day treatment; format: cell-based; settings: 10^−5 M
# [8] = test system: MCF-7 cells; settings: paclitaxel at 10^−6 M, 1 day
# [9] = listed as fluorescin-octreotide
compound,measurement,setting,value
Fluorescein-Octreotide [labeled octreotide],binding (fluorescence labeling) to CHO cells,[1],not to the CHO cells
same,binding (fluorescence labeling) to CHO cells,[1]; [9],No labeling can be seen among the CHO cells
same,binding to CHO cells at higher concentration of labeled octreotide,[1],does not bind to the CHO cells
same,binding to CHO cells at higher concentration of labeled octreotide,[1]; [9],No labeling
same,binding (fluorescence labeling) to MCF-7 cells,[2],binds to the MCF-7 cells
same,binding (fluorescence labeling) to MCF-7 cells,[2]; [9],labeling is confined to the MCF-7 cell surface
same,binding to MCF-7 cells in the presence of excessive non-labeled octreotide,"[2]; excessive amount (1,000 fold) of nonfluorescent octreotide",disappears
same,internalization into MCF-7 cytosol,[3],internalized into the MCF-7 cytosol
same,internalization into MCF-7 cytosol,[3]; [9],internalization
"C[C@@H](O)[C@@H]1NC(=O)[C@H](CCCCN)NC(=O)[C@@H](Cc2c[nH]c3ccccc23)NC(=O)[C@H](Cc2ccccc2)NC(=O)[C@@H](NC(=O)[C@H](N)Cc2ccccc2)CSSC[C@@H](C(=O)N[C@H](CO)[C@@H](C)O)NC1=O [octreotide, D-Phe-c[Cys-Phe-D-Trp-Lys-Thr-Cys]-Thr(ol)]",affinity to human somatostatin receptor subtype 2,[4],high affinities
"CC(C)[C@@H]1NC(=O)[C@H](CCCCN)NC(=O)[C@@H](Cc2c[nH]c3ccccc23)NC(=O)[C@H](Cc2ccc(O)cc2)NC(=O)[C@@H](NC(=O)[C@H](N)Cc2ccccc2)CSSC[C@@H](C(=O)N[C@@H](Cc2c[nH]c3ccccc23)C(N)=O)NC1=O [vapreotide, D-Phe-c[Cys-Tyr-D-Trp-Lys-Val-Cys]-Trp-NH2] (H-[dF]CY[dW]KVCW-NH2; disulfide 2-7)",affinity to human somatostatin receptor subtype 4,[5],high affinities
"CC(=O)O[C@H]1C(=O)[C@@]2(C)[C@H]([C@H](OC(=O)c3ccccc3)[C@]3(O)C[C@H](OC(=O)[C@H](O)[C@@H](NC(=O)c4ccccc4)c4ccccc4)C(C)=C1C3(C)C)[C@]1(OC(C)=O)CO[C@@H]1C[C@@H]2O [paclitaxel, reference compound]",death of MCF-7 cells,[6],causes death of both MCF-7 cells and CHO cells
same,death of CHO cells,[7],causes death of both MCF-7 cells and CHO cells
Paclitaxel-Glutary 1-Octreotide [octreotide conjugated paclitaxel],cell specificity (MCF-7 versus CHO cells),[6],specific to MCF-7 cells
same,death of MCF-7 cells,[6],induces only the death of the MCF-7 cells
same,death of CHO cells,[7],not of the CHO cells
same,"anti-tumor activity through disrupting microtubule formation, compared with non-conjugated paclitaxel",[8],same anti- tumor activity through disrupting microtubule formation
same,"anti-tumor activity through disrupting microtubule formation, compared with non-conjugated paclitaxel",[8]; listed as octreotide-conjugated taxol,virtually retains the cellular functions of taxol
